Source: PMC2374418, “A prolonged methoxymorpholino doxorubicin (PNU-152243 or MMRDX) infusion schedule in patients with solid tumours: a phase 1 and pharmacokinetic study” (British Journal of Cancer, 2000)

Assays:
[1] = tested on: intrinsically anthracycline-resistant tumours; assay: Tumour response according to WHO criteria; format: in vivo, human; conditions: 3 h i.v. infusion, 1.0-1.5 mg m-2, 13 evaluable patients
Text: Nowadays, anthracyclines play an important role in chemothera- peutic treatment of a wide variety of tumour types. The clinical use of anthracyclines is limited by their toxicity profile, especially irreversible, cumulative dose-related cardiotoxicity, and by intrinsic or acquired resistance of tumours cells. Mechanisms of this resistance consist of several pathways, such as overexpression of drug efflux pumps (i.e. P-glycoprotein), decrease in topoiso- merase II enzyme levels, and increase in cellular detoxifying capacity (Kaye and Merry, 1985; Deffie et al, 1989; de Jong et al, 1990; Ford and Hait, 1990; Roninson, 1997). Morpholinyl anthracyclines, such as methoxymorpholino doxorubicin (MMRDX or PNU-152243), were synthesized in search for new anthracyclines with at least partially novel modes of action, including activity on multidrug-resistant (MDR) tumours. MMRDX is a novel doxorubicin derivative in which the nitrogen atom of the daunosamine is enclosed in a methoxymor- pholino ring (Figure 1). […] The working mechanism of morpholinyl anthracyclines appears to be different from other anthracyclines. Morpholinyl anthracyclines inhibit ribosomal gene transcription as well as topoisomerase I-mediated DNA-cleavage (Wassermann et al, 1988, 1990). […] In addition, we assessed pharmacokinetics of prolonged MMRDX-infusion. […]

MDR xenografts = tested on: MDR xenografts; parameters: method as in Ripamonti et al, 1992; conditions: animal studies, ref Ripamonti et al, 1992; cited from earlier work
[2] = tested on: patients with intrinsic anthracycline-resistant tumours; assay: Phase I toxicity (CTC grading), MMRDX as 3 h intravenous infusion once every 4 weeks
Text: Nowadays, anthracyclines play an important role in chemothera- peutic treatment of a wide variety of tumour types. The clinical use of anthracyclines is limited by their toxicity profile, especially irreversible, cumulative dose-related cardiotoxicity, and by intrinsic or acquired resistance of tumours cells. Mechanisms of this resistance consist of several pathways, such as overexpression of drug efflux pumps (i.e. P-glycoprotein), decrease in topoiso- merase II enzyme levels, and increase in cellular detoxifying capacity (Kaye and Merry, 1985; Deffie et al, 1989; de Jong et al, 1990; Ford and Hait, 1990; Roninson, 1997). Morpholinyl anthracyclines, such as methoxymorpholino doxorubicin (MMRDX or PNU-152243), were synthesized in search for new anthracyclines with at least partially novel modes of action, including activity on multidrug-resistant (MDR) tumours. MMRDX is a novel doxorubicin derivative in which the nitrogen atom of the daunosamine is enclosed in a methoxymor- pholino ring (Figure 1). […] The working mechanism of morpholinyl anthracyclines appears to be different from other anthracyclines. Morpholinyl anthracyclines inhibit ribosomal gene transcription as well as topoisomerase I-mediated DNA-cleavage (Wassermann et al, 1988, 1990). […] Metabolic conversion of MMRDX by human liver microsomes and NADPH potentiated the cytotoxicity in an ovarian carcinoma cell line (Lau et al, 1994). […] Therefore, we decided to perform a phase I study with MMRDX administered as a 3 h infusion every 4 weeks in order to try to increase the MTD as compared with bolus administration. In addition, we assessed pharmacokinetics of prolonged MMRDX-infusion. A prolonged methoxymorpholino doxorubicin (PNU- 152243 or MMRDX) infusion schedule in patients with solid tumours: a phase 1 and pharmacokinetic study E Fokkema1 , J Verweij2 , AT van Oosterom3 , DRA Uges1 , R Spinelli4 , O Valota4 , EGE de Vries1 and HJM Groen1 1 Department of Pulmonology, Department of Pharmacy, Department of Internal Medicine, University Hospital Groningen, PO Box 30.001, 9700 RB Groningen, The Netherlands; 2 Rotterdam Cancer Institute and University Hospital, Rotterdam, The Netherlands; 3 University Hospital Leuven, Belgium; 4 Pharmacia & Upjohn, Milan, Italy Summary The aim of this phase I study was to assess feasibility, pharmacokinetics and toxicity of methoxymorpholino doxorubicin (MMRDX or PNU-152243) administered as a 3 h intravenous infusion once every 4 weeks. […] The first cohort of patients was treated with 1 mg m-2 of MMRDX. The next cohorts received 1.25 mg m-2 and 1.5 mg m-2 respectively. […] (c) 2000 Cancer Research Campaign Keywords: methoxymorpholino doxorubicin; pharmacokinetics; phase I study 767 Received 6 January 1999 Revised 2 August 1999 Accepted 25 August 1999 Correspondence to: EGE de Vries British Journal of Cancer (2000) 82(4), 767-771 (c) 2000 Cancer Research Campaign DOI: 10.1054/ bjoc.1999.0996, available online at http://www.idealibrary.com on PATIENTS AND METHODS Patients The study was performed between December 1994 and June 1996. Patients with intrinsic anthracycline-resistant tumours were accrued in three different centres in Belgium and The Netherlands.

rats = tested on: rats; parameters: method as in Danesi et al, 1993; conditions: ref Danesi et al, 1993; cited from earlier work
[3] = tested on: various tumour cell lines, including MDR tumour cell lines; parameters: method as in ref Danesi et al, 1993; Kuhl et al, 1993; van der Graaf et al, 1995; Bakker et al, 1997; conditions: ref Danesi et al, 1993, Kuhl et al, van der Graaf et al, 1995, Bakker et al, 1997; cited from earlier work
patients = tested on: patients; parameters: method as in Vasey et al, 1995; conditions: ref Vasey et al, 1995, cited from earlier work

SMILES: COc1cccc2c1C(=O)c1c(O)c3c(c(O)c1C2=O)C[C@@](O)(C(=O)CO)C[C@@H]3O[C@H]1C[C@H](N2CCO[C@H](OC)C2)[C@H](O)[C@H](C)O1 [MMRDX, methoxymorpholino doxorubicin]
- Tumour responses [1]: No tumour response
- Activity against MDR xenografts (MDR xenografts): showed activity
- Non-haematological toxicity ([2]; 1 mg m-2): did not exceed CTC grade II
- Median (range) nadir of leucocytes over all evaluable cycles ([2]; 1.0 mg m-2): 6.0 (3.9-15.1) x 109 l-1
- Median (range) nadir of neutrophils over all evaluable cycles ([2]; 1.0 mg m-2): 3.3 (2.4-12.7) x 109 l-1
- Median (range) nadir of platelets over all evaluable cycles ([2]; 1.0 mg m-2): 197 (130-356) x 109 1-1
- Neutrophils, CTC grade III toxicity ([2]; 1.0 mg m-2, 7 cycles): 0 % of total number of cycles
- Neutrophils, CTC grade IV toxicity ([2]; 1.0 mg m-2, 7 cycles): 0 % of total number of cycles
- Leucocytes, CTC grade III toxicity ([2]; 1.0 mg m-2, 8 cycles): 0 % of total number of cycles
- Leucocytes, CTC grade IV toxicity ([2]; 1.0 mg m-2, 8 cycles): 0 % of total number of cycles
- Platelets, CTC grade III toxicity ([2]; 1.0 mg m-2, 8 cycles): 0 % of total number of cycles
- Platelets, CTC grade IV toxicity ([2]; 1.0 mg m-2, 8 cycles): 0 % of total number of cycles
- Median (range) nadir of leucocytes over all evaluable cycles ([2]; 1.25 mg m-2): 2.7 (1.0-10.4) x 109 l-1
- Median (range) nadir of neutrophils over all evaluable cycles ([2]; 1.25 mg m-2): 1.9 (0.5-8.3) x 109 l-1
- Median (range) nadir of platelets over all evaluable cycles ([2]; 1.25 mg m-2): 190 (60-328) x 109 1-1
- Nausea, vomiting and diarrhoea exceeding grade II ([2]; 1.25 mg m-2): one cycle
- Transient elevations in total bilirubin reaching CTC grade II ([2]; 1.25 mg m-2): 2/15
- Leucocytes, CTC grade III toxicity ([2]; 1.25 mg m-2, 17 cycles): 6 % of total number of cycles
- Leucocytes, CTC grade IV toxicity ([2]; 1.25 mg m-2, 17 cycles): 0 % of total number of cycles
- Neutrophils, CTC grade III toxicity ([2]; 1.25 mg m-2, 17 cycles): 0 % of total number of cycles
- Neutrophils, CTC grade IV toxicity ([2]; 1.25 mg m-2, 17 cycles): 0 % of total number of cycles
- Platelets, CTC grade III toxicity ([2]; 1.25 mg m-2, 17 cycles): 0 % of total number of cycles
- Platelets, CTC grade IV toxicity ([2]; 1.25 mg m-2, 17 cycles): 0 % of total number of cycles
- Patients with grade III/IV haematological toxicity ([2]; 1.25 mg m-2, six patients treated): one patient
- Death with neutropenic fever / sepsis during febrile neutropenia ([2]; 1.5 mg m-2): One patient
- Grade III/IV fatigue ([2]; 1.5 mg m-2): one out of 11 cycles
- Grade III/IV infection ([2]; 1.5 mg m-2): four out of 11 cycles
- Median (range) nadir of leucocytes over all evaluable cycles ([2]; 1.5 mg m-2): 1.4 (0.2-7.5) x 109 l-1
- Median (range) nadir of neutrophils over all evaluable cycles ([2]; 1.5 mg m-2): 0.5 (0.2-7.3) x 109 l-1
- Median (range) nadir of platelets over all evaluable cycles ([2]; 1.5 mg m-2): 55 (8-119) x 109 1-1
- Nausea and vomiting exceeding grade II ([2]; 1.5 mg m-2): two out of 11 cycles
- Patients with grade III/IV haematological toxicity ([2]; 1.5 mg m-2): all five patients
- Transient elevations in total bilirubin reaching CTC grade II ([2]; 1.5 mg m-2): 3/11
- Neutrophils, CTC grade III toxicity ([2]; 1.5 mg m-2, 7 cycles): 29 % of total number of cycles
- Neutrophils, CTC grade IV toxicity ([2]; 1.5 mg m-2, 7 cycles): 43 % of total number of cycles
- Platelets, CTC grade III toxicity ([2]; 1.5 mg m-2, 9 cycles): 22 % of total number of cycles
- Platelets, CTC grade IV toxicity ([2]; 1.5 mg m-2, 9 cycles): 11 % of total number of cycles
- Leucocytes, CTC grade III toxicity ([2]; 1.5 mg m-2, 10 cycles): 40 % of total number of cycles
- Leucocytes, CTC grade IV toxicity ([2]; 1.5 mg m-2, 10 cycles): 30 % of total number of cycles
- Cycles reduced from 1.5 mg m-2 to 1.25 mg m-2 because of haematological toxicity ([2]; 1.5 mg m-2, three out of five patients): Four out of 11 cycles
- Patients with neutropenic fever ([2]; 3 h i.v. infusion): Three patients
- Maximum tolerated dose (MTD) ([2]; 3 h i.v. infusion every 4 weeks): 1.25 mg m-2
- CTC grade III/IV nausea and vomiting ([2]; 3 h i.v. infusion, 1.25 mg m-2): 1/18
- Transient elevation in transaminases up to CTC grade III ([2]; 3 h i.v. infusion, 1.25 mg m-2): 2/16
- CTC grade III neutropenia ([2]; 3 h i.v. infusion, 1.5 mg m-2): 2/7
- CTC grade III/IV nausea and vomiting ([2]; 3 h i.v. infusion, 1.5 mg m-2): 2/11
- CTC grade IV neutropenia ([2]; 3 h i.v. infusion, 1.5 mg m-2): 3/7
- Thrombocytopenia grade III ([2]; 3 h i.v. infusion, 1.5 mg m-2): 2/9
- Thrombocytopenia grade IV ([2]; 3 h i.v. infusion, 1.5 mg m-2): 1/9
- Transient elevation in transaminases up to CTC grade III ([2]; 3 h i.v. infusion, 1.5 mg m-2): 4/11
- Cardiotoxicity ([2]; 3 h i.v. infusion, all dose levels): No cardiotoxicity
- LVEF at the end of treatment in eight patients ([2]; after two to six cycles): No significant decreases
- Grade III/IV toxicity for haemoglobin ([2]; all dose levels): No grade III/IV toxicity
- Phlebitis at the infusion site, nephro- and neurotoxicity ([2]; all dose levels): No phlebitis at the infusion site and no nephro- or neurotoxicity
- Start of late nausea and vomiting ([2]; all dose levels): around 4 days after treatment
- Decrease in LVEF, one patient ([2]; highest dose level, after three cycles, LVEF remained in the normal range): 13%
- Time of late haematological toxicity ([2]; main toxicity): ~22 day
- Cumulative haematological toxicity for subsequent cycles ([2]; overall): no cumulative haematological toxicity for subsequent cycles, except for platelets at the highest dose level
- Cardiotoxicity in rats (rats): no substantial cardiotoxicity
- Cytotoxic activity in vitro [3]: potent cytotoxic activity
- Grade IV neutropenia (patients; 1.5 mg m-2 bolus every 3 weeks): 14 % of administered cycles
- Dose-limiting toxicity (DLT) (patients; bolus injection every 3 weeks): myelosuppression (neutropenia and thrombocytopenia)
- Maximum tolerated dose (MTD) (patients; bolus injection every 3 weeks): 1.5 mg m-2
- Plasma clearance (patients; bolus): 650 ml min-1 m-2
- t1/2 after a rapid distribution phase (patients; bolus): 40 h
- Tumour responses (patients; head and neck (one out of three), cervical cancer (one out of five), colorectal cancer (two out of 20)): four responses
